Active and inactive are the calls of the source. The rule behind the calls is not given here.
Key:
AGS [1] = test: Antiproliferative activity against human AGS cells assessed as reduction in cell viability incubated for 24 hrs by CCK-8 assay; assay type: functional, cell-based
HepG2 = test: Antiproliferative activity against human HepG2 cells assessed as reduction in cell viability incubated for 24 hrs by CCK-8 assay; assay type: functional, cell-based; conditions: HepG2, 24 h
A549 [2] = test: Induction of apoptosis in human A549 cells assessed as reduction of mitochondrial membrane potential at 10 uM incubated for 8 hrs by JC-1 staining based fluorescence microscopic assay; assay type: functional, cell-based
A549 [3] = test: Inhibition of cell invasion in human A549 cells at 7.5 uM incubated for 24 hrs by matrigel based transwell assay; assay type: functional
A549 [4] = test: Induction of apoptosis in human A549 cells assessed as late apoptotic cells at 10 uM incubated for 24 hrs by annexin V-FITC/propidium iodide staining based flow cytometry analysis (reference value: 0.8%); assay type: functional
A549 [5] = test: Induction of apoptosis in human A549 cells assessed as increase in ROS level at 10 uM incubated for 8 hrs by H2DCFDA staining based fluorescence microscopic assay; assay type: functional, cell-based
NCI-H460 [6] = test: Induction of apoptosis in human NCI-H460 cells assessed as increase in ROS level at 10 uM incubated for 8 hrs by H2DCFDA staining based fluorescence microscopic assay; assay type: functional, cell-based
A549 [7] = test: Induction of apoptosis in human A549 cells assessed as viable cells at 10 uM incubated for 24 hrs by annexin V-FITC/propidium iodide staining based flow cytometry analysis (reference value: 95.2%); assay type: functional; conditions: read-out: Activity
U-251 = test: Antiproliferative activity against human U-251 cells assessed as reduction in cell viability incubated for 24 hrs by CCK-8 assay; assay type: functional, cell-based; conditions: U-251, 24 h
NCI-H460 [8] = test: Antiproliferative activity against human NCI-H460 cells assessed as reduction in cell viability incubated for 24 hrs by CCK-8 assay; assay type: functional, cell-based; conditions: NCI-H460, 24 h
LoVo [9] = test: Inhibition of colony formation in human LoVo cells incubated for 48 hrs by Giemsa staining based microscopy; assay type: functional, cell-based
NCI-H460 [10] = test: Inhibition of cell migration in human NCI-H460 cells assessed as downregulation of Snail protein expression at 7.5 uM incubated for 24 hrs by western blot analysis; assay type: functional, cell-based
LoVo [11] = test: Induction of apoptosis in human LoVo cells assessed as increase in ROS level at 10 uM incubated for 8 hrs by H2DCFDA staining based fluorescence microscopic assay; assay type: functional, cell-based
LoVo [12] = test: Induction of apoptosis in human LoVo cells assessed as viable cells at 10 uM incubated for 24 hrs by annexin V-FITC/propidium iodide staining based flow cytometry analysis (reference value: 98%); assay type: functional; conditions: read-out: Activity
NCI-H1650 [13] = test: Inhibition of colony formation in human NCI-H1650 cells incubated for 48 hrs by Giemsa staining based microscopy; assay type: functional, cell-based
LoVo [14] = test: Induction of apoptosis in human LoVo cells assessed as late apoptotic cells at 10 uM incubated for 24 hrs by annexin V-FITC/propidium iodide staining based flow cytometry analysis (reference value: 0.4%); assay type: functional
SW480 = test: Antiproliferative activity against human SW480 cells assessed as reduction in cell viability incubated for 24 hrs by CCK-8 assay; assay type: functional, cell-based; conditions: SW480, 24 h
A549 [15] = test: Inhibition of colony formation in human A549 cells incubated for 48 hrs by Giemsa staining based microscopy; assay type: functional, cell-based
LoVo [16] = test: Inhibition of cell migration in human LoVo cells at 7.5 uM incubated for 24 hrs by crystal violet staining based transwell assay; assay type: functional
A549 [17] = test: Induction of apoptosis in human A549 cells assessed as necrotic cells at 10 uM incubated for 24 hrs by annexin V-FITC/propidium iodide staining based flow cytometry analysis (reference value: 0.4%); assay type: functional
LoVo [18] = test: Induction of apoptosis in human LoVo cells assessed as necrotic cells at 10 uM incubated for 24 hrs by annexin V-FITC/propidium iodide staining based flow cytometry analysis (reference value: 0.3%); assay type: functional
LoVo [19] = test: Induction of apoptosis in human LoVo cells assessed as decrease in XIAP protein expression level at 7.5 uM incubated for 24 hrs by western blot assay; assay type: functional, cell-based
LoVo [20] = test: Inhibition of cell invasion in human LoVo cells at 7.5 uM incubated for 24 hrs by matrigel based transwell assay; assay type: functional
NCI-H460 [21] = test: Inhibition of cell migration in human NCI-H460 cells assessed as upregulation of E-cadherin protein expression at 7.5 uM incubated for 24 hrs by western blot analysis; assay type: functional, cell-based
NCI-H460 [22] = test: Induction of apoptosis in human NCI-H460 cells assessed as viable cells at 10 uM incubated for 24 hrs by annexin V-FITC/propidium iodide staining based flow cytometry analysis (reference value: 97.9%); assay type: functional; conditions: read-out: Activity
NCI-H460 [23] = test: Induction of apoptosis in human NCI-H460 cells assessed as decrease in Bcl-2 protein expression level at 7.5 uM incubated for 24 hrs by western blot assay; assay type: functional, cell-based
NCI-H460 [24] = test: Induction of apoptosis in human NCI-H460 cells assessed as reduction of mitochondrial membrane potential at 10 uM incubated for 8 hrs by JC-1 staining based fluorescence microscopic assay; assay type: functional, cell-based
NCI-H460 [25] = test: Cytotoxicity against human NCI-H460 cells assessed as reduction in cell viability at 10 uM incubated for 8 hr by CCK-8 assay; assay type: functional, cell-based
OVCAR-3 = test: Antiproliferative activity against human OVCAR-3 cells assessed as reduction in cell viability incubated for 24 hrs by CCK-8 assay; assay type: functional, cell-based; conditions: OVCAR-3, 24 h
NCI-H460 [26] = test: Induction of apoptosis in human NCI-H460 cells assessed as early apoptotic cells at 10 uM incubated for 24 hrs by annexin V-FITC/propidium iodide staining based flow cytometry analysis (reference value: 0.8%); assay type: functional
NCI-H460 [27] = test: Induction of apoptosis in human NCI-H460 cells assessed as decrease in XIAP protein expression level at 7.5 uM incubated for 24 hrs by western blot assay; assay type: functional, cell-based
NCI-H460 [28] = test: Inhibition of cell invasion in human NCI-H460 cells at 7.5 uM incubated for 24 hrs by matrigel based transwell assay; assay type: functional
LoVo [29] = test: Induction of apoptosis in human LoVo cells assessed as increase in JNK phosphorylation at 7.5 uM incubated for 24 hrs by western blot assay; assay type: functional, cell-based
MCF7 = test: Antiproliferative activity against human MCF7 cells assessed as reduction in cell viability incubated for 24 hrs by CCK-8 assay; assay type: functional, cell-based; conditions: MCF7, 24 h
NCI-H1650 [30] = test: Antiproliferative activity against human NCI-H1650 cells assessed as reduction in cell viability incubated for 24 hrs by CCK-8 assay; assay type: functional, cell-based; conditions: NCI-H1650, 24 h
A549 [31] = test: Antitumor activity against human A549 cells xenografted in BALB/c mouse assessed as reduction in tumor growth at 20 mg/kg,ip measured after 28 days; assay type: functional, organism-based; conditions: time 28.0 day
[32] = Toxicity in BALB/c mouse xenografted with human MDA-MB-231 cells assessed as liver pathological change at 20 mg/kg,ip measured after 28 days; assay type: organism-based; conditions: in vivo, 672 h, time 28 day
LoVo [33] = test: Antiproliferative activity against human LoVo cells assessed as reduction in cell viability incubated for 24 hrs by CCK-8 assay; assay type: functional, cell-based
AGS [34] = test: Inhibition of colony formation in human AGS cells incubated for 48 hrs by Giemsa staining based microscopy; assay type: functional, cell-based
LoVo [35] = test: Inhibition of cell migration in human LoVo cells assessed as downregulation of Snail protein expression at 7.5 uM incubated for 24 hrs by western blot analysis; assay type: functional, cell-based

Q: Which IC50 (AGS [1]) does the source give for `C=CCc1ccc(O)c(-c2cc(CC=C)ccc2OCC[S+]([O-])CCCCN=C=S)c1` (stereo not given) here?
A: 8.02 µM

Q: And the IC50 (HepG2)?
A: 6.24 µM

Q: And the Activity (A549 [2])?
A: Active

Q: And the inhibition (A549 [3])?
A: Active

Q: And the Activity (A549 [4])?
A: 25.7%

Q: What about the Activity (A549 [5]) of the same molecule?
A: Active

Q: And the Activity (NCI-H460 [6])?
A: Active

Q: And the viability at 10 µM (A549 [7])?
A: 50.1%

Q: And the IC50 (U-251)?
A: 7.75 µM

Q: What about the IC50 (NCI-H460 [8]) of the same molecule?
A: 6.15 µM

Q: What about the inhibition (LoVo [9]) of the same molecule?
A: Active

Q: What about the inhibition (NCI-H460 [10]) of the same molecule?
A: Active

Q: What about the Activity (LoVo [11]) of the same molecule?
A: Active

Q: What about the viability at 10 µM (LoVo [12]) of the same molecule?
A: 22%

Q: What about the inhibition (NCI-H1650 [13]) of the same molecule?
A: Active

Q: What about the Activity (LoVo [14]) of the same molecule?
A: 23.3%

Q: What about the IC50 (SW480) of the same molecule?
A: 6.07 µM

Q: What about the inhibition (A549 [15]) of the same molecule?
A: Active

Q: And the inhibition (LoVo [16])?
A: Active

Q: What about the Activity (A549 [17]) of the same molecule?
A: 10.3%

Q: What about the Activity (LoVo [18]) of the same molecule?
A: 38%

Q: What about the Activity (LoVo [19]) of the same molecule?
A: Active

Q: What about the inhibition (LoVo [20]) of the same molecule?
A: Active

Q: What about the inhibition (NCI-H460 [21]) of the same molecule?
A: Active

Q: What about the viability at 10 µM (NCI-H460 [22]) of the same molecule?
A: 15.3%

Q: What about the Activity (NCI-H460 [23]) of the same molecule?
A: Active

Q: And the Activity (NCI-H460 [24])?
A: Active

Q: And the Activity (NCI-H460 [25])?
A: Active

Q: And the IC50 (OVCAR-3)?
A: 5.34 µM

Q: What about the Activity (NCI-H460 [26]) of the same molecule?
A: 8.2%

Q: What about the Activity (NCI-H460 [27]) of the same molecule?
A: Active

Q: And the inhibition (NCI-H460 [28])?
A: Active

Q: And the Activity (LoVo [29])?
A: Active

Q: What about the IC50 (MCF7) of the same molecule?
A: 12.7 µM

Q: What about the IC50 (NCI-H1650 [30]) of the same molecule?
A: 6.92 µM

Q: And the Activity (A549 [31])?
A: Active

Q: And the Activity [32]?
A: Non-Toxic

Q: And the IC50 (LoVo [33])?
A: 5.1 µM

Q: And the inhibition (AGS [34])?
A: Active

Q: And the inhibition (LoVo [35])?
A: Active
